Results: patent US20220387469A1, “METHOD OF UTILIZING ULTRAFINE BUBBLES” (Shiseido Company, Ltd., priority 2019, published 2022)

Assay: Permeation of adenosine into stratum corneum of forearm skin (tape peel, LC-MS quantification)
Type: in vivo, human
Conditions: forearm of a test subject, Formulation 1 that contains ultrafine bubbles (aerosol spray, actuator D391, nitrogen 0.9 MPa) applied first, then Formulation 2 (0.2% adenosine) applied for 10 minutes, 1 cm by 1 cm stratum corneum
From the text: In order to provide Formulation 1 that contains ultrafine bubbles onto the skin, the aerosol container 10 was filled with Formulation 1, and the interior pressure was set to 0.9 MPa with nitrogen gas. The actuator “D391” having a flow rate adjusting mechanism produced by K. K. Mitani Valves was applied as the spray actuator 11.
That is, a liquid which was sprayed from the aerosol container 10 and Formulation 1 as an undiluted liquid were applied to two different locations on a forearm of a test subject. Thereafter, Formulation 2 that contains adenosine was applied onto each of the two locations for 10 minutes. Next, 1 cm by 1 cm squares of stratum corneum were peeled from the locations onto which the formulations were applied, stratum corneum components were extracted, and the amounts of adenosine were quantitatively analyzed by the LC-MS method (Liquid Chromatography Mass Spectrometry method).

amount of adenosine within the stratum corneum, relative to the case that Formulation 1 that did not contain ultrafine bubbles was applied: 1.6 times
SMILES: Nc1ncnc2c1ncn2[C@@H]1O[C@H](CO)[C@@H](O)[C@H]1O [adenosine]
